Data set [1] is described as follows: Kinetic solubility by nephelometric (light scattering) method. It is filed as physicochemical. As to conditions: PBS pH 7.4.
A short description of data set [2]: L929 cytotoxicity evaluation (resazurin). It is filed as cell-based. The note with it: mouse, L929 mouse fibroblast cells; 72 hrs incubation; read-out: Cytotox L-929 IC50. The gist of the method:
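Mouse L929 fibroblasts (1×10^4/mL seeding, attached overnight) were treated 72 h at 37 °C, 5% CO2 with serially diluted compounds in DMSO in D-MEM/10% FBS. Viability read by resazurin fluorescence after 3–4 h (ex 544/em 590 nm); IC50 from sigmoidal fits of single data points.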
(Resazurin is reduced to fluorescent resorufin, in cell work by metabolically active cells.)

Data set [3] is described as follows: Pharmacokinetic studies in rats (plasma, brain, CSF). It is filed as in vivo. As to conditions: for half-life: read-out: t½ (converted); for Cmax / AUC(0-t) / AUC(0-inf): normalized to 25 mg/kg; for AUC(0-t): read-out: Exposure/trapezoid AUC0-18; for AUC(0-inf): read-out: Exposure/trapezoid AUC0-inf. The method, then: Male Sprague Dawley rats weighing approximately 200 g received test article (E19 or 82) as a single oral gavage (OG) dose of approximately 25 mg/kg (approximately 10 animals per group).
All doses were administered as clear colorless solutions as in situ sodium salts in 5% (m/v) dextrose:2% (v/v) ethanol in DWI. All dose solutions were delivered at 2 mL/kg. Animals were fasted for at least 4 hours before dosing, and for 2 hours after dosing.
Blood and CSF samples and brain tissue were sampled from 1 animal/timepoint/group immediately before dosing and approximately 0.5, 1, 2, 3, 4, 6, 8, 12, 18 and 24 hr after dosing for full pharmacokinetic (plasma and CSF) and tissue (Brain) analysis.

[4] abbreviates: male, Sprague Dawley, rat, CSF, oral, rats.
[5] abbreviates: male, Sprague Dawley, rat, brain, oral, rats.
[6] abbreviates: male, Sprague Dawley, rat, plasma, oral, rats.

In brackets after ≈: the same amount, converted by molar mass. Like-named read-outs stand apart in the source and are kept apart here.

What is called Solubility is the dissolved amount per volume that the medium holds. A high value points to a readily soluble substance. For orientation: IC50 means the midpoint of a concentration-inhibition curve. For orientation: Cmax means the peak of the concentration-time curve.

Turning to `CC1(C)OB(O)c2cc(NC(=O)c3ccc(F)cc3C(F)(F)F)ccc21` [compound 82], in data set [1], the “Solubility” value turned out to be 25 µM (≈ 9.18 µg/mL). The half-maximal inhibitory concentration (IC50) at 72 h in data set [2] is greater than 10 µg/mL. The half-life was 8.7 h in data set [3] (male, Sprague Dawley, rat, 25 mg/kg, CSF, oral, rats); 9.5 h in data set [3] (male, Sprague Dawley, rat, 25 mg/kg, brain, oral, rats); 15.5 h in data set [3] (male, Sprague Dawley, rat, 25 mg/kg, plasma, oral, rats). For the same compound, the CL/F in data set [3] (male, Sprague Dawley, rat, 25 mg/kg, plasma, oral, rats, read-out: Oral Clearance Cl/F (converted)) was 1.53 mL/min/kg. Further, the Cmax in data set [3] (setting [4]) turned out to be 1000 ng/mL; in data set [3] (setting [5]), 7900 ng/mL; in data set [3] (setting [6]) it was 17000 ng/mL. Further, the figures for the AUC(0-t) in data set [3] (setting [4]), in data set [3] (setting [5]) and in data set [3] (setting [6]) were 13.6 µg·h/mL, 120 µg·h/mL and 272 µg·h/mL, respectively. Further, the AUC(0-inf) in data set [3] (setting [4]) stood at 16.8 µg·h/mL; in data set [3] (setting [5]) it was 152 µg·h/mL; in data set [3] (setting [6]) it was 433 µg·h/mL. Moreover, the “time levels in brain and CSF are above the in vitro MIC” value in data set [3] (nominal single oral dose of 25 mg/kg to rats) is “approximately 12 hours”. Besides, the “fold improved exposure in CSF over E19” value in data set [3] (rat, in vivo) is on record as “approximately 4 fold”. In addition, the “Fold improvement 82 vs. E19: Oral Clearance Cl/F” value in data set [3] (rat, in vivo, po) is on record as 2.8 fold. For the same compound, the “Fold improvement 82 vs. E19: t½” value in data set [3] (rat, in vivo, po, CSF) worked out at 2.8 fold; in data set [3] (rat, in vivo, po, brain), 3.7 fold; in data set [3] (rat, in vivo, po, plasma), 1.9 fold.

The values are drawn from US20110190235A1, “BORON-CONTAINING SMALL MOLECULES AS ANTIPROTOZOAL AGENTS” (Anacor Pharmaceuticals, Inc., priority 2009, published 2011).
